≈ marks a conversion by molar mass, not a printed value.
What was measured:
Bacillus subtilis = test: Antibacterial activity against Bacillus subtilis DSM 347; format: functional
Artemia salina = test: Toxicity against Artemia salina; format: organism-based; settings: in vivo
Micrococcus luteus = test: Antibacterial activity against Micrococcus luteus DSM 348; format: functional
Gambusia affinis = test: Toxicity against Gambusia affinis; format: organism-based; settings: in vivo

SMILES: C[C@H]1CC=C2[C@H](CCCC2(C)C)[C@@]1(C)CCC1=CC[C@H](C2=CC(=O)O[C@H]2O)OC1 [CACOSPONGIONOLIDE F]
- MIC (Bacillus subtilis): 0.78 µg/mL (≈ 1.95 µM)
- LC50 (Artemia salina): 0.17 ppm
- MIC (Micrococcus luteus): 0.78 µg/mL (≈ 1.95 µM)
- LC50 (Gambusia affinis): 0.7 ppm

Reference: ChEMBL document CHEMBL1144114, “A new cacospongionolide derivative from the sponge Fasciospongia cavernosa” (J Nat Prod, 1999)
